For test [1], the target named is T1, Endothelin receptor type B (Sus scrofa, UniProt P35463).
T1 sequence (P35463 whole entry): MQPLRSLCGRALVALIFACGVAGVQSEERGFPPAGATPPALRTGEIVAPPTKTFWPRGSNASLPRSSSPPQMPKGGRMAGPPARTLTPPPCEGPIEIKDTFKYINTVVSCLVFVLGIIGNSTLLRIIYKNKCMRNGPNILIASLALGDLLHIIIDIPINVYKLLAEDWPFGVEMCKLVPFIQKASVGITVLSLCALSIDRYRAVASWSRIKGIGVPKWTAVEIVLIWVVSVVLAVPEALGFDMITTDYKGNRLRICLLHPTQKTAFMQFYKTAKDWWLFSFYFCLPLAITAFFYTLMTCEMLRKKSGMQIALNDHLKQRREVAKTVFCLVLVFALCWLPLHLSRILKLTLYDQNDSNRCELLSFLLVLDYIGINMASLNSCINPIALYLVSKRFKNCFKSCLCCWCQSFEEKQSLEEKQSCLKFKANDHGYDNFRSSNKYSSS
The experiment in a line: Ability to inhibit [125I]ET-3 binding to the Endothelin B receptor from porcine lung membranes was evaluated. It is filed as tissue-based.

The next test deals with T2, Endothelin-1 receptor (Sus scrofa, UniProt Q29010).
T2 sequence (Q29010 whole entry): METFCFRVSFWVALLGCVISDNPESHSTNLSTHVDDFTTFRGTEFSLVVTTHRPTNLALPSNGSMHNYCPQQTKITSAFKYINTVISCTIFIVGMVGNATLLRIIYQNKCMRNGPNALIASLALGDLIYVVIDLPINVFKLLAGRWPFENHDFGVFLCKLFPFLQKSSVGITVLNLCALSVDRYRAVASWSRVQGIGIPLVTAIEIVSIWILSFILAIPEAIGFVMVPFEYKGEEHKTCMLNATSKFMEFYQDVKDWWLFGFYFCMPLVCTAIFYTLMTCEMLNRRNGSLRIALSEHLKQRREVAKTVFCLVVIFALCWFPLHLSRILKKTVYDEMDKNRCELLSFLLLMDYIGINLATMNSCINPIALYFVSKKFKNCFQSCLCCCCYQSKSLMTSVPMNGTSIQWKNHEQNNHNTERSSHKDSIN
The experiment in a line: Ability to inhibit [125I]ET1 binding to the Endothelin A receptor from porcine lung membranes was evaluated. It is filed as tissue-based.

The species named for the next test is Bos taurus. The experiment in a line: Ability to inhibit 3H substance P binding to bovine retina was evaluated. It is filed as functional.

16 compounds from ChEMBL document CHEMBL1129770 (Bioorg Med Chem Lett, 1996) can be followed below.

Starred links: 1 amine or outer side, 2 acyl side, 3 side chain; linkers in the order of their positions; H or OH if unused. Residues, ends and D or L forms follow the SMILES beside them. Suc = O=C(CCC(=O)[*:2])[*:1] Where only a bound is given, the exact number is not on record here.

What is called Ki is the dissociation constant of the complex between target and ligand, obtained from inhibition or displacement. The low end stands for higher affinity, the high end for lower affinity. Turning to `CC[C@H](C)[C@H](NC(=O)[C@H](CC(=O)O)NC(=O)[C@H](CC(C)C)NC(=O)[C@H](Cc1cnc[nH]1)NC(=O)CNC(=O)[C@H](Cc1ccccc1)NC(=O)[C@H](Cc1ccc(O)cc1)NC(=O)[C@@H](NC(=O)[C@H](C)NC(=O)[C@H](CCC(=O)O)NC(=O)CCC(=O)O)C(C)C)C(=O)N[C@H](C(=O)N[C@@H](Cc1c[nH]c2ccccc12)C(=O)O)[C@@H](C)CC` (Suc-EAVYFGHLDIIW-OH), the inhibition constant (Ki) came out at 5.3 nM in test [1] and 2000 nM at Endothelin-1 receptor.
For orientation: IC50 means the concentration that gives 50% inhibition. Lower therefore signals greater potency in that assay. For `Cc1cc(C)cc(C(=O)N(C)[C@H](Cc2ccccc2)C(=O)NCCc2c[nH]c3ccccc23)c1`, the IC50 in the test listed under Bos taurus worked out at 800 nM. The compound further registered a Ki in test [1] of 5 nM.
Consider `CC[C@H](C)[C@H](NC(=O)[C@H](CC(=O)O)NC(=O)[C@H](CC(C)C)NC(=O)CNC(=O)[C@H](C)NC(=O)[C@H](Cc1ccccc1)NC(=O)[C@H](Cc1ccc(O)cc1)NC(=O)[C@@H](NC(=O)[C@H](C)NC(=O)[C@H](CCC(=O)O)NC(=O)CCC(=O)O)C(C)C)C(=O)N[C@H](C(=O)N[C@@H](Cc1c[nH]c2ccccc12)C(=O)O)[C@@H](C)CC` (Suc-EAVYFAGLDIIW-OH), for which the figures for the Ki (in test [1]; on Endothelin-1 receptor) were 1 nM and 250 nM, respectively.
Turning to `Cc1cc(C)cc(C(=O)N(C)[C@H](Cc2ccc(-c3ccccc3)cc2)C(=O)N[C@@H](Cc2c[nH]c3ccccc23)C(=O)O)c1`, the half-inhibitory concentration (IC50) in the test listed under Bos taurus is over 10000 nM.
With `CC[C@H](C)[C@H](NC(=O)[C@H](CC(=O)O)NC(=O)[C@H](CC(C)C)NC(=O)[C@H](Cc1c[nH]cn1)NC(=O)[C@H](C)NC(=O)[C@H](Cc1ccccc1)NC(=O)[C@H](Cc1ccc(O)cc1)NC(=O)CNC(=O)[C@H](C)NC(=O)[C@H](CCC(=O)O)NC(=O)CCC(=O)O)C(=O)N[C@H](C(=O)N[C@@H](Cc1c[nH]c2ccccc12)C(=O)O)[C@@H](C)CC` (Suc-EAGYFAHLDIIW-OH), the Ki was 0.91 nM in test [1] and 1300 nM on Endothelin-1 receptor.
Regarding `CC[C@H](C)[C@H](NC(=O)[C@H](CC(=O)O)NC(=O)CNC(=O)[C@H](Cc1c[nH]cn1)NC(=O)[C@H](C)NC(=O)[C@H](Cc1ccccc1)NC(=O)[C@H](Cc1ccc(O)cc1)NC(=O)[C@@H](NC(=O)[C@H](C)NC(=O)[C@H](CCC(=O)O)NC(=O)CCC(=O)O)C(C)C)C(=O)N[C@H](C(=O)N[C@@H](Cc1c[nH]c2ccccc12)C(=O)O)[C@@H](C)CC` (Suc-EAVYFAHGDIIW-OH), the inhibition constant (Ki) was 5.9 nM in test [1] and over 10000 nM on Endothelin-1 receptor.
Regarding `CC[C@H](C)[C@H](NC(=O)CNC(=O)[C@H](CC(=O)O)NC(=O)[C@H](CC(C)C)NC(=O)[C@H](Cc1cnc[nH]1)NC(=O)[C@H](C)NC(=O)[C@H](Cc1ccccc1)NC(=O)[C@H](Cc1ccc(O)cc1)NC(=O)[C@@H](NC(=O)[C@H](C)NC(=O)[C@H](CCC(=O)O)NC(=O)CCC(=O)O)C(C)C)C(=O)N[C@@H](Cc1c[nH]c2ccccc12)C(=O)O` (Suc-EAVYFAHLDGIW-OH), the values for the Ki (in test [1]; on Endothelin-1 receptor) were 180 nM and over 10000 nM, respectively.
On the same counts, the results for `CC[C@H](C)[C@H](NC(=O)CNC(=O)[C@H](CC(C)C)NC(=O)[C@H](Cc1cnc[nH]1)NC(=O)[C@H](C)NC(=O)[C@H](Cc1ccccc1)NC(=O)[C@H](Cc1ccc(O)cc1)NC(=O)[C@@H](NC(=O)[C@H](C)NC(=O)[C@H](CCC(=O)O)NC(=O)CCC(=O)O)C(C)C)C(=O)N[C@H](C(=O)N[C@@H](Cc1c[nH]c2ccccc12)C(=O)O)[C@@H](C)CC` (Suc-EAVYFAHLGIIW-OH) are 0.25 nM and 96 nM.
In turn, `CC[C@H](C)[C@H](NC(=O)[C@H](CC(=O)O)NC(=O)[C@H](CC(C)C)NC(=O)[C@H](Cc1cnc[nH]1)NC(=O)[C@@H]1CSSC[C@H](N)C(=O)N[C@@H](CO)C(=O)N[C@H]2CSSC[C@H](NC(=O)[C@H](CCC(=O)O)NC(=O)[C@H](CCCCN)NC(=O)[C@H](CC(=O)O)NC(=O)[C@H](CCSC)NC(=O)[C@H](CC(C)C)NC(=O)[C@H](CO)NC(=O)[C@H](CO)NC2=O)C(=O)N[C@@H](C(C)C)C(=O)N[C@@H](Cc2ccc(O)cc2)C(=O)N[C@@H](Cc2ccccc2)C(=O)N1)C(=O)N[C@H](C(=O)N[C@@H](Cc1c[nH]c2ccccc12)C(=O)O)[C@@H](C)CC` [ENDOTHELIN] had an inhibitory constant (Ki) at Endothelin-1 receptor of 0.04 nM.
Take `CC[C@H](C)[C@H](NC(=O)[C@H](CC(=O)O)NC(=O)[C@H](CC(C)C)NC(=O)[C@H](Cc1c[nH]cn1)NC(=O)[C@H](C)NC(=O)CNC(=O)[C@H](Cc1ccc(O)cc1)NC(=O)[C@@H](NC(=O)[C@H](C)NC(=O)[C@H](CCC(=O)O)NC(=O)CCC(=O)O)C(C)C)C(=O)N[C@H](C(=O)N[C@@H](Cc1c[nH]c2ccccc12)C(=O)O)[C@@H](C)CC` (Suc-EAVYGAHLDIIW-OH): the Ki in test [1] is 260 nM; at Endothelin-1 receptor, over 10000 nM.
As to `O=C(N[C@@H](Cc1c[nH]c2ccccc12)C(=O)O)C1CC1c1ccccc1` (stereo not given in full), the inhibition constant (Ki) in test [1] came out at 16 nM.
In the case of `CC[C@H](C)[C@H](NC(=O)[C@H](CC(=O)O)NC(=O)[C@H](CC(C)C)NC(=O)[C@H](Cc1cnc[nH]1)NC(=O)[C@H](C)NC(=O)[C@H](Cc1ccccc1)NC(=O)[C@H](Cc1ccc(O)cc1)NC(=O)[C@@H](NC(=O)[C@H](C)NC(=O)[C@H](CCC(=O)O)NC(=O)CCC(=O)O)C(C)C)C(=O)N[C@H](C(=O)NCC(=O)O)[C@@H](C)CC` (Suc-EAVYFAHLDIIG-OH), the inhibition constant (Ki) (in test [1]; on Endothelin-1 receptor) was over 10000 nM in each case.
On to `CC[C@H](C)[C@H](NC(=O)[C@H](CC(=O)O)NC(=O)[C@H](CC(C)C)NC(=O)[C@H](Cc1cnc[nH]1)NC(=O)[C@H](C)NC(=O)[C@H](Cc1ccccc1)NC(=O)[C@H](Cc1ccc(O)cc1)NC(=O)[C@@H](NC(=O)[C@H](C)NC(=O)[C@H](CCC(=O)O)NC(=O)CCC(=O)O)C(C)C)C(=O)NCC(=O)N[C@@H](Cc1c[nH]c2ccccc12)C(=O)O` (Suc-EAVYFAHLDIGW-OH), for which the Ki in test [1] was 5200 nM; at Endothelin-1 receptor, over 10000 nM.
`Cc1cc(C)cc(C(=O)N(C)[C@H](Cc2ccccc2)C(=O)N[C@@H](Cc2c[nH]c3ccccc23)C(=O)O)c1` showed a half-maximal inhibitory concentration (IC50) in the test listed under Bos taurus of 2000 nM. Also, the Ki in test [1] came out at 36 nM; at Endothelin-1 receptor it was 11000 nM.
In the case of `CC[C@H](C)[C@H](NC(=O)[C@H](CC(=O)O)NC(=O)[C@H](CC(C)C)NC(=O)[C@H](Cc1c[nH]cn1)NC(=O)[C@H](C)NC(=O)[C@H](Cc1ccccc1)NC(=O)[C@H](Cc1ccc(O)cc1)NC(=O)[C@@H](NC(=O)[C@H](C)NC(=O)[C@H](CCC(=O)O)NC(=O)CCC(=O)O)C(C)C)C(=O)N[C@H](C(=O)N[C@@H](Cc1c[nH]c2ccccc12)C(=O)O)[C@@H](C)CC` (Suc-EAVYFAHLDIIW-OH), the inhibition constant Ki in test [1] stood at 0.077 nM; at Endothelin-1 receptor it was 620 nM.
Take `CC[C@H](C)[C@H](NC(=O)[C@H](CC(=O)O)NC(=O)[C@H](CC(C)C)NC(=O)[C@H](Cc1cnc[nH]1)NC(=O)[C@H](C)NC(=O)[C@H](Cc1ccccc1)NC(=O)CNC(=O)[C@@H](NC(=O)[C@H](C)NC(=O)[C@H](CCC(=O)O)NC(=O)CCC(=O)O)C(C)C)C(=O)N[C@H](C(=O)N[C@@H](Cc1c[nH]c2ccccc12)C(=O)O)[C@@H](C)CC` (Suc-EAVGFAHLDIIW-OH): the inhibition constant (Ki) came to 11 nM in test [1] and 5000 nM on Endothelin-1 receptor.
